Drawing on article PMC11062922 (Nature Chemical Biology, 2023), this text covers CATDS and potency estimated from few doses for 23 compounds.

One assay concerns the target T1, ACAD11 (Homo sapiens, UniProt Q709F0).
T1 construct: endogenous in cells
T1 sequence (Q709F0 1-780): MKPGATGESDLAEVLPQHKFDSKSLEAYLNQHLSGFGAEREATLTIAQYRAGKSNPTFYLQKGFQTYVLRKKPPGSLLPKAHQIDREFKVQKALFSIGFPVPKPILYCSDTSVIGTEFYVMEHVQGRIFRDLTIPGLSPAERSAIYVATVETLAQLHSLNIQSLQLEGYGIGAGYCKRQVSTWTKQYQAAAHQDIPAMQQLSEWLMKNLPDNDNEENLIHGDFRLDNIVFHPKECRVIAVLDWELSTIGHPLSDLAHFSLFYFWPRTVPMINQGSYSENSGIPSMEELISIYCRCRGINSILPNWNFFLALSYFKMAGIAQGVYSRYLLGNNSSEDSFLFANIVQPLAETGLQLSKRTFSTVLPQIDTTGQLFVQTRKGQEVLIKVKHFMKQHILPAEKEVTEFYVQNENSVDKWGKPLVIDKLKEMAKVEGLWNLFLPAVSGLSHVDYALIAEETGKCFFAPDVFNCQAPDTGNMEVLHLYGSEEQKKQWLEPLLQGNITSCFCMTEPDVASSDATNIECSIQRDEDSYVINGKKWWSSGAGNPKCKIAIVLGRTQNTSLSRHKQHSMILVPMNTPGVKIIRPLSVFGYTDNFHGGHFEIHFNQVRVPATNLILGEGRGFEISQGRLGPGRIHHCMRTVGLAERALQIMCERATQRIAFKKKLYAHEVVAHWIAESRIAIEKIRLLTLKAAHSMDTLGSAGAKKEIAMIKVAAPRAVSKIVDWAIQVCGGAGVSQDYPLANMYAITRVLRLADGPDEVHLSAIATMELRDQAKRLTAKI
As to the kind of experiment: Kinobeads two-dose competition binding: ACAD11. Conditions: sheet CATDS matrix 2; Gene Name ACAD11.

The next assay has as its target T2, ACOX1 (Homo sapiens, UniProt Q15067).
T2 construct: endogenous in cells
T2 sequence (Q15067 1-660): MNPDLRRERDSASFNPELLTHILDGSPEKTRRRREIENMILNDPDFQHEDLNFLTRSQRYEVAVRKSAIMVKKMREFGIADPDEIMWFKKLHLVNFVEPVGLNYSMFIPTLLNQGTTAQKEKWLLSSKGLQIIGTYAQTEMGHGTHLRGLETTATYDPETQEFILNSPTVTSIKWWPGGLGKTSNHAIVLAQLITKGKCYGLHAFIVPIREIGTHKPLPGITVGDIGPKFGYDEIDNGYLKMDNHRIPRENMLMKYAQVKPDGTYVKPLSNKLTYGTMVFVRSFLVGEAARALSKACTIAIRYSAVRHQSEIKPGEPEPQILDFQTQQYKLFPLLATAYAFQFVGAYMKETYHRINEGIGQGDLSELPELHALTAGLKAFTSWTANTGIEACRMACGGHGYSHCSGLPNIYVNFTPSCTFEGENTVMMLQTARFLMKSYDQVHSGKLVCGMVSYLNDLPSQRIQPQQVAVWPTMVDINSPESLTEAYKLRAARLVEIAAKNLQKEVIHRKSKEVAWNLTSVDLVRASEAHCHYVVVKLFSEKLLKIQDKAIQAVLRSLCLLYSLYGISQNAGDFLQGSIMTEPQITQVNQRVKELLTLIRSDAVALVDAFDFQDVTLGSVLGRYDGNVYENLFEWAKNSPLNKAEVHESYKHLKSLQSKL
As to the kind of experiment: Kinobeads two-dose competition binding: ACOX1.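 Further: competition of compounds with immobilized broad-spectrum kinase inhibitor beads in cell lysate at 100 and 1,000 nM, 45 min at 4 °C, bead-bound protein quantified by label-free MS versus DMSO.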 Conditions: sheet CATDS matrix 2; Gene Name ACOX1.

Another assay has as its target ABL1 (Homo sapiens, UniProt P00519). As to the kind of experiment: Kinobeads two-dose competition binding: ABL1. The note with it: sheet CATDS matrix 2; Gene Name ABL1.
In the next assay the target is T3, AAK1 (Homo sapiens, UniProt Q2M2I8).
T3 construct: to maximize the representation of endogenous proteins; endogenous in cells
T3 sequence (Q2M2I8 whole entry): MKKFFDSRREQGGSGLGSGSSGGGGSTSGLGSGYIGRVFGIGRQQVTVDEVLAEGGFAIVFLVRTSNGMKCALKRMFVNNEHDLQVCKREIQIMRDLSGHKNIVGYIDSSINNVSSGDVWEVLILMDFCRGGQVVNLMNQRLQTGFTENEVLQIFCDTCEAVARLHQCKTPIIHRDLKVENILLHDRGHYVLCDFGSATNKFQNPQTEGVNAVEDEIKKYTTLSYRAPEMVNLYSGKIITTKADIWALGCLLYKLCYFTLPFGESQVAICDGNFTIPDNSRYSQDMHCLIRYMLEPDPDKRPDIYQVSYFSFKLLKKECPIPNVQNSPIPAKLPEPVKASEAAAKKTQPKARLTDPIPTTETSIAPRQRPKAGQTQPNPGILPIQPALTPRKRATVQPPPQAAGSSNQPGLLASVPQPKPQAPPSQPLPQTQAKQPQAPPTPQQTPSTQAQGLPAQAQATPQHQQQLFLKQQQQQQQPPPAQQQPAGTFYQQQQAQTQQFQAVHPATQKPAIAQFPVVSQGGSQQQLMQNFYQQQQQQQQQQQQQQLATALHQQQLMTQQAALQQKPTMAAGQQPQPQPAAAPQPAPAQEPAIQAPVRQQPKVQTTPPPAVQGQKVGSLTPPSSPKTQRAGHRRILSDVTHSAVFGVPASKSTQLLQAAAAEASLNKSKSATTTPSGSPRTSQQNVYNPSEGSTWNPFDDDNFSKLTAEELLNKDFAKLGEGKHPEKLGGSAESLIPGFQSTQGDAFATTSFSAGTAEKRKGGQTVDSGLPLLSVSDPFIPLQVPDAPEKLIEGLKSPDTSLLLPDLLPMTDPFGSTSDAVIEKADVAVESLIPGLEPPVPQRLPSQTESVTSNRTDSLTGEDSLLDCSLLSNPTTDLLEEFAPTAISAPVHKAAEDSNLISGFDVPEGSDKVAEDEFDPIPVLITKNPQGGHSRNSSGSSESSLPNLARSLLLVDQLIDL
As to the kind of experiment: Kinobeads two-dose competition binding: AAK1.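 On all read-outs here: kinobeads competition pulldown from cell lysate, compound preincubated 45 min at 4 °C, bead-bound protein measured by label-free mass spectrometry against DMSO vehicle control.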 The note with it: for CATDS: sheet CATDS matrix 2, Gene Name AAK1; for potency estimated from few doses: read-out: Kinobeads Drugmatrix - all: apparent Kd, AAK1.

For another assay, the target named is T4, ABL2 (Homo sapiens, UniProt P42684).
T4 construct: endogenous in cells
T4 sequence (P42684 whole entry): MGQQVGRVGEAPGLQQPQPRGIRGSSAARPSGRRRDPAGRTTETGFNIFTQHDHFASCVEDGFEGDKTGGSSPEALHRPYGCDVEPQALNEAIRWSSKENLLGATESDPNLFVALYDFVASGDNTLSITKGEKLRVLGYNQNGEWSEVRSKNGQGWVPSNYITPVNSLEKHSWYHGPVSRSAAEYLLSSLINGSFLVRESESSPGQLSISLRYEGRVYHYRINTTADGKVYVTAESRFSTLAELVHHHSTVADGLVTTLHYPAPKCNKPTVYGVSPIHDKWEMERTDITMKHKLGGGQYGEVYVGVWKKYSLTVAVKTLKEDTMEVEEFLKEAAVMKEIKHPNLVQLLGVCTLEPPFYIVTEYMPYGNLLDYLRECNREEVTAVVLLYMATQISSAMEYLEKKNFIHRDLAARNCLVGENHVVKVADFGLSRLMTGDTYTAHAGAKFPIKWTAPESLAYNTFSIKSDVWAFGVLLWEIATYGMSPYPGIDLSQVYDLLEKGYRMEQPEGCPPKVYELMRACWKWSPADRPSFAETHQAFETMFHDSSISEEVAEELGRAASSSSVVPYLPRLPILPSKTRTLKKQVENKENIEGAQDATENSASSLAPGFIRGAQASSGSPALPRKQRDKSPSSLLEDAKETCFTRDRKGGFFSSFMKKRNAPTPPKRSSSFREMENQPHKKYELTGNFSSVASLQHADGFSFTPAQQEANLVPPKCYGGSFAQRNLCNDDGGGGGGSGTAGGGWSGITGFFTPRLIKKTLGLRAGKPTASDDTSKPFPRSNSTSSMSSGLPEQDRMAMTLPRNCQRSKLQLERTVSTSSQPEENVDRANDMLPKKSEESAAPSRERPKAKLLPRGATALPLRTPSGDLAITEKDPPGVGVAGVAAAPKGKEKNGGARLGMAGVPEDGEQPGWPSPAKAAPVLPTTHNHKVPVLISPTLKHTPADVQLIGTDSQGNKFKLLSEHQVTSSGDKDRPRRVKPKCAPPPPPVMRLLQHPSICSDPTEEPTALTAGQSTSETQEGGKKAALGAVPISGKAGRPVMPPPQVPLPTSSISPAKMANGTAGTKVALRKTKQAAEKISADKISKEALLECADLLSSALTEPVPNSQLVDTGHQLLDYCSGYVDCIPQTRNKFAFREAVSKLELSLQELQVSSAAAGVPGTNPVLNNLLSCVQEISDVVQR
As to the kind of experiment: Kinobeads two-dose competition binding: ABL2. The note with it: sheet CATDS matrix 2; Gene Name ABL2.

Setting [1] is: sheet "Kinobeads Drugmatrix - all", unit inferred, same values below 1000 recur in sheet "nanomolar".

Structures are written as SMILES. Like-named read-outs stand apart in the source and are kept apart here. A value given as a limit tells only on which side of the number the result lay.

Sequence of ABL1 (P00519 28-1130 limits assumed): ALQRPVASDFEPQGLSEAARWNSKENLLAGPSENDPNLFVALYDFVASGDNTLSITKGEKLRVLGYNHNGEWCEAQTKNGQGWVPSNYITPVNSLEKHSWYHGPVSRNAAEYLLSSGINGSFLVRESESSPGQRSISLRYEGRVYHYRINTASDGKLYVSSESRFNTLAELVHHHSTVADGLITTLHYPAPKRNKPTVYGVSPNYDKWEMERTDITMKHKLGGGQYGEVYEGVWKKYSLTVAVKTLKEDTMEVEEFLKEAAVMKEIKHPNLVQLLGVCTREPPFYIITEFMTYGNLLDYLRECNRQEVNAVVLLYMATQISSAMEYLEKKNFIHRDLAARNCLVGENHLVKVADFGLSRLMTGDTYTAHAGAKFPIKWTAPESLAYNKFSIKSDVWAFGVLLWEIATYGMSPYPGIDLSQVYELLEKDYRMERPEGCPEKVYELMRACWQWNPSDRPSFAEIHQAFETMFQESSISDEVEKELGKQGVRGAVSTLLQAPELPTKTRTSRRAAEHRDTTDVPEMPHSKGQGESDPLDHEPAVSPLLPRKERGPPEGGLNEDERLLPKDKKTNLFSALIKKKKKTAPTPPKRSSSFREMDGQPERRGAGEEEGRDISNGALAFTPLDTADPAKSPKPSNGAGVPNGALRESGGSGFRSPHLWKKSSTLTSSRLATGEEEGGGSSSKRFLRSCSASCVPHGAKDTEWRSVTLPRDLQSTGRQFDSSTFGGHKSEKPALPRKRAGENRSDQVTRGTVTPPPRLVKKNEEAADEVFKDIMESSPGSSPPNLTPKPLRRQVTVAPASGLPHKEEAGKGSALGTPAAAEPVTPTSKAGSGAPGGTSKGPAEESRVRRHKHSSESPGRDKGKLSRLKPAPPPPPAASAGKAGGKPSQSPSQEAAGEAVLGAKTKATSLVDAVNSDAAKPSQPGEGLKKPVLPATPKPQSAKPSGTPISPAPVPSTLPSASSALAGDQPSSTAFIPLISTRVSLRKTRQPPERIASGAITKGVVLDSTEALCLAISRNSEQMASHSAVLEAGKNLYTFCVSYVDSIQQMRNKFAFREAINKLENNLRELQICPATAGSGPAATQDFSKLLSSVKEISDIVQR

Regarding `COc1cc2c(cc1Nc1nc(N3CCc4ccccc43)c3cc[nH]c3n1)N(C(=O)CN(C)C)CC2` [GSK2186269A], the CATDS at ACAD11, at ACOX1, on ABL1, on AAK1 and on ABL2 was 0 in each case.

`CC(C)NCC(Cc1ccccc1)NC(=O)c1cc(Br)c(-c2ccnc3[nH]ccc23)s1` (centres unmarked) [GSK1383281A]: the CATDS at ACAD11, at ACOX1, at ABL1, on AAK1 and at ABL2 was 0 each time.

In the case of `COc1cc(N2CCC(N3CCN(C)CC3)CC2)ccc1Nc1ncc(Cl)c(Nc2ccccc2P(C)(C)=O)n1` [Brigatinib, reference compound], the CATDS at ACAD11 was 0; at ACOX1, 0; on ABL1 it was 0; at AAK1 it was 0.01731; on ABL2 it was 0.

On to `COc1cc(Nc2ncc(F)c(Nc3ccc4c(n3)N(COP(=O)(O)O)C(=O)C(C)(C)O4)n2)cc(OC)c1OC` [Fostamatinib, reference compound], for which the CATDS on ACAD11, on ACOX1, on ABL1, on AAK1 and on ABL2 was 0 in each case.

Regarding `Cc1ccc(C)c(NC(=O)NC2CCN(c3ccnc(Nc4ccc(F)cc4)n3)C2)c1` (centres unmarked) [GSK1379720A], the CATDS at ACAD11, at ACOX1, at ABL1, on AAK1 and on ABL2 was 0 throughout.

In the case of `Cc1c(Cn2ccn3c(=O)cc(N4CCOCC4)nc23)cccc1C(F)(F)F` [GSK2289044B], the CATDS at ACAD11, on ACOX1, on ABL1, on AAK1 and on ABL2 was 0 throughout.

As for `Cc1cccc(-c2cc(Nc3ccncc3)c3ccccc3n2)n1` [GSK223675A], the CATDS on ACAD11, at ACOX1, on ABL1, at AAK1 and at ABL2 was 0 each time.

`NC[C@H](CC1CCCCC1)NC(=O)c1cc(Br)c(-c2ccnc3[nH]ccc23)s1` [GSK1581427A]: the CATDS at ACAD11, on ACOX1, on ABL1, on AAK1 and at ABL2 was 0 each time.

As to `COc1cc(Nc2nccc(N3CCC(NC(=O)C4COc5ccccc5O4)C3)n2)cc(OC)c1OC` (centres unmarked) [GSK1379761A], the CATDS on ACAD11, at ACOX1, at ABL1, at AAK1 and on ABL2 was 0 in each case. The potency estimated from few doses at AAK1 (setting [1]) is over 1000 nM.

As to `COc1cc(Nc2cnc(C#N)c(O[C@H](C)CN(C)C)n2)ncc1-c1cnn(C)c1` [CCT244747], the CATDS at ACAD11, on ACOX1, on ABL1, on AAK1 and at ABL2 was 0 in each case.

Turning to `Cc1cc(N2CCC(NS(=O)(=O)c3ccc(F)cc3)CC2)nc(Nc2cccc(C#N)c2)n1` [GSK1653537A], the CATDS at ACAD11, at ACOX1, on ABL1, at AAK1 and at ABL2 was 0 throughout.

Regarding `NC[C@H](Cc1ccc(C(F)(F)F)cc1)NC(=O)c1cc(Br)c(-c2ccnc3[nH]ccc23)s1` [GSK1487252A], the CATDS at ACAD11, at ACOX1, on ABL1, at AAK1 and on ABL2 was 0 each time.

Take `CCn1c(-c2nonc2N)nc2c(C#CC(C)(C)O)nc(O[C@@H](CN)c3ccccc3)cc21` [GSK1007102B]: the CATDS came out at 0 on ACAD11; 0 at ACOX1; 0 at ABL1; 0.04112 at AAK1; 0 on ABL2. The potency estimated from few doses on AAK1 (setting [1]) is 67.3 nM.

For `CC(=O)c1cccc(NC(=O)NC2CCN(c3ccnc(Nc4ccc(F)cc4)n3)C2)c1` (centres unmarked) [GSK1379710A], the CATDS on ACAD11, on ACOX1, on ABL1, on AAK1 and on ABL2 was 0 each time.

`O=c1[nH]cc(-c2ccc(O)cc2)c2sc(-c3ccncc3)cc12` [GSK1033723A]: the CATDS on ACAD11, at ACOX1, at ABL1, at AAK1 and on ABL2 was 0 in each case.

For `Cc1ccc(NC(=O)Nc2cc(C(C)(C)C)nn2-c2ccccc2)cc1` [GSK1014915A], the CATDS at ACAD11, at ACOX1, at ABL1, at AAK1 and on ABL2 was 0 throughout.

Turning to `Cc1ccc(NC(=O)Nc2ccccc2F)cc1-c1ccc(C(=O)Nc2ccncc2)cc1` [GSK1398477_KCGS], the CATDS on ACAD11 came to 0.01477; on ACOX1 it was 0; on ABL1, 0.0136; at AAK1, 0.01281; at ABL2, 0.02269.

Regarding `COc1cc(N2CCN(C(C)C)CC2)ccc1Nc1nc(Nc2ccc(F)cc2C(N)=O)c2cc[nH]c2n1` [GSK1220512A], the CATDS at ACAD11, at ACOX1, on ABL1, on AAK1 and at ABL2 was 0 in each case.

`COc1cc(Nc2nccc(N3CCC(NC(=O)c4cccc(NC(C)=O)c4)C3)n2)cc(OC)c1OC` (centres unmarked) [GSK1379754A]: the CATDS at ACAD11 is 0; at ACOX1, 0; on ABL1 it was 0; at AAK1, 0.1752; at ABL2, 0. The potency estimated from few doses at AAK1 (setting [1]) is 410 nM.

Consider `O=c1[nH]ccc2nc(N[C@@H]3CCNC3)nc(Nc3cc(Cl)cc(Cl)c3)c12` [GSK2188764A], for which the CATDS is 0 on ACAD11; 0 at ACOX1; 0 at ABL1; 0.04842 on AAK1; 0 at ABL2. For the same compound, the potency estimated from few doses at AAK1 was 114 nM.

With `O=c1cc(N2CCOCC2)nc2n(Cc3cccc(F)c3)ccn12` [GSK2297430A], the CATDS on ACAD11, on ACOX1, on ABL1, at AAK1 and at ABL2 was 0 in each case.

`NCC(NC(=O)c1cc(-c2cccnc2)c(-c2ccnc3[nH]ccc23)s1)c1ccccc1` (centres unmarked) [GSK1323434A]: the CATDS on ACAD11, on ACOX1, at ABL1, at AAK1 and on ABL2 was 0 in each case.

In the case of `COc1cc2ncnc(Nc3cccc(Cl)c3F)c2cc1O[C@H]1CC[C@@]2(CC1)NCCNC2=O` [BI00113608], the CATDS on ACAD11, on ACOX1, at ABL1, on AAK1 and at ABL2 was 0 in each case.
